Laboratory results as given in BindingDB's records for doi:10.1007/s002100000327 (Leicester Royal Infirmary, 2001).

How the values were obtained:
[1] = molecular target: Kappa-type opioid receptor (Homo sapiens, UniProt P41145)
[2] = molecular target: Mu-type opioid receptor (Homo sapiens, UniProt P35372)
[3] = molecular target: Delta-type opioid receptor (Homo sapiens, UniProt P41143)
Sequence of Delta-type opioid receptor (P41143 whole entry): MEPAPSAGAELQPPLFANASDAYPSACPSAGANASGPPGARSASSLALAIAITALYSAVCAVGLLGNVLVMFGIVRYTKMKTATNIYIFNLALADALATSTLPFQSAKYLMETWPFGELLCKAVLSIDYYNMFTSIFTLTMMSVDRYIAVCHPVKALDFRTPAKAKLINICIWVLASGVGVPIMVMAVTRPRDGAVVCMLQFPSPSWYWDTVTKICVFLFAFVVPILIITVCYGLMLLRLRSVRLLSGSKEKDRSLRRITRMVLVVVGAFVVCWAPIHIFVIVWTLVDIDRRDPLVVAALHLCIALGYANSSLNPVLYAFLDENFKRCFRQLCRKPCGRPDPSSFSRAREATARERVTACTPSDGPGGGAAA

Sequence of Kappa-type opioid receptor (P41145 whole entry): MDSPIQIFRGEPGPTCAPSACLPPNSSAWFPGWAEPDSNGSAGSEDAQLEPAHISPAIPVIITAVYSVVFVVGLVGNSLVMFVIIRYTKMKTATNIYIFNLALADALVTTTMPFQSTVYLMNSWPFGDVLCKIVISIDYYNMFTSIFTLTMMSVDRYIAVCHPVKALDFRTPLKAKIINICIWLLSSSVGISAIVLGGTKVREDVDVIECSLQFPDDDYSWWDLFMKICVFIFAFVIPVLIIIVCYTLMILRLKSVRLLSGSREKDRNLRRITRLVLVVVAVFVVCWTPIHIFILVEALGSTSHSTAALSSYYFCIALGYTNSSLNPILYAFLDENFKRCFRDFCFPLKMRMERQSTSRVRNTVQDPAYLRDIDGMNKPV
Sequence of Mu-type opioid receptor (P35372 whole entry): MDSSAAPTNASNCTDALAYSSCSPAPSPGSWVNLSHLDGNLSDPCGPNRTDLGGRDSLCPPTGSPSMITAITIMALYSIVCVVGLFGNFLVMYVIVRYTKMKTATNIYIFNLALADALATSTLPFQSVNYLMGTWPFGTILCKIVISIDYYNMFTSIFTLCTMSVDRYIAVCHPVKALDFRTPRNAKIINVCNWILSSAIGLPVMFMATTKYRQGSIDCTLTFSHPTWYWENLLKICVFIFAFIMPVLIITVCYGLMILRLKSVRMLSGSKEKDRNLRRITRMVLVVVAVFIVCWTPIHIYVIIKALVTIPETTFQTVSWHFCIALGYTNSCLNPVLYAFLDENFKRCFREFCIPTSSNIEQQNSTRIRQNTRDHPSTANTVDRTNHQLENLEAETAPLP

SMILES	Ki [1]	Ki [2]	Ki [3]
C[C@H](NC(=O)CNC(=O)[C@@H](NC(=O)[C@H](Cc1ccccc1)NC(=O)CNC(=O)CNC(=O)CNCc1ccccc1)[C@@H](C)O)C(=O)N[C@@H](CCCN=C(N)N)C(=O)N[C@@H](CCCCN)C(=O)N[C@@H](CO)C(=O)N[C@@H](C)C(=O)N[C@@H](CCCN=C(N)N)C(=O)N[C@@H](CCCCN)C(N)=O [H-PHE-(R)-GLY-GLY-PHE-THR-GLY-ALA-ARG-LYS-SER-ALA-ARG-LYS-NH2]	1100 nM	> 10000 nM	> 10000 nM
CC(=O)N[C@@H](CCCN=C(N)N)C(=O)N[C@H](CC1CCCCC1)C(=O)N[C@H]1CC[C@@H]2SC[C@@H](C(=O)N[C@H](CCCN=C(N)N)C(=O)N[C@H](Cc3ccc(Cl)cc3)C(N)=O)N2C1=O [NOCICEPTIN RECEPTOR ANTAGONIST PEPTIDE III-BTD]	11.5 nM	8.91 nM	60.3 nM
